Laboratory results from patent US20050100577A1, “Expandable medical device with beneficial agent matrix formed by a multi solvent system” (priority 2003, published 2005).

Key:
[1] = Description: A second drug, such as paclitaxel, which is soluble in anisole can be provided in the top layers. Therefore, the arrangement shown in FIG. 4 can include 2-CdA in the first therapeutic agent layer 60 and paclitaxel in the second therapeutic agent layer 70.
[2] = cited from earlier work

SMILES: Nc1nc(Cl)nc2c1ncn2[C@H]1C[C@H](O)[C@@H](CO)O1 [2-CdA, 2-chlorodeoxyadenosine]
- solubility in first solvent, DMSO [1]: very soluble
- solubility in second solvent, anisole [1]: marginal solubility
- water solubility [2]: about 4.5 mg/ml
